Data on two compounds can be found in patent US10111854B2, “Synthesis and use of amine-containing flavonoids as potent anti-leishmanial agents” (The Hong Kong Polytechnic University, priority 2014, dated 2018).

The structures appear in SMILES notation. In brackets after ≈: the same amount, converted by molar mass. Where two headings read alike, the source gives them in different places. Where only a bound is given, the exact number is not on record here.

For data set [1], the system named is L. amazonensis LV78 promastigotes. Description: Anti-promastigote activity (MTS assay), L. amazonensis LV78. The note with it: Leishmania amazonensis, 72 hours. The format is cell-based. Put shortly:
(§1)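 Promastigotes (1×10^5 per well) in Schneider's medium pH 6.9 with 10% FBS, exposed to serial compound concentrations for 72 h at 27 °C. Viability by MTS/PMS reduction over 4 h, OD 490 nm; IC50 derived.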
A general note: Tetrazolium assays rely on reduction of a dye to a coloured formazan, in cell work by metabolically active cells.

The subject of data set [2] is L. major FV1 promastigotes. Nature of the data set: Anti-promastigote activity (MTS assay), L. major FV1. The format is cell-based. The settings on record: Leishmania major, 72 hours. Put shortly: as §1
Data set [3] concerns L. donovani HU3 promastigotes. Nature of the data set: Anti-promastigote activity (MTS assay), L. donovani HU3. The format is cell-based. The settings on record: Leishmania donovani, 72 hours. The procedure, abridged:
as §1

Data set [4] deals with L. amazonensis promastigotes. Nature of the data set: Mitochondrial membrane potential (rhodamine 123) and survivors (MTS) of promastigotes. The format is cell-based. The settings on record: for viability at 10 µM: Leishmania amazonensis, read-out: % of viable cells (MTS). Here is the method: 1×10^7 promastigotes were seeded into each well of 6-well plate. The promastigotes were incubated with different concentrations (0, 1.25, 2.5, 5 and 10 μM) of FM09 for 24 and 48 hr, respectively. After incubation, promastigotes were washed two times with 1×PBS and resuspended with 1000 μL of supplemented Schneider's Insect media containing 10 μg/mL of rhodamine 123 in an Eppendorf. The promastigotes were incubated with rhodamine 123 at room temperature for 40 min with shaking. After incubation, promastigotes were washed one time with cold 1×PBS and then re-suspended with 100 μL of 1×PBS. The fluorescent level of rhodamine 123 was measured with a microplate reader (excitation: 485 nm and emission: 520 nm).
L. amazonensis promastigotes were cultivated in different concentration (0, 1.25, 2.5, 5 and 10 μM) of FM09 for 24 hr or 48 hr. The promastigotes were washed and exposed to rhodamine 123 (10 μg/mL) for 40 min. The level of rhodamine 123 accumulation was measured at 520 nm using 485 nm as an excitation wavelength. 0.2% DMSO was used as a solvent control. The values were presented as mean±standard error of mean.

Data set [5] can be described thus: Pharmacokinetics study of FM09, FM09h and FM05b, iv and oral. The note with it: 50 mg/kg oral. The format is in vivo, Balb/c mice. The procedure: Animals were sacrificed at the indicated time point and plasma level of the corresponding flavonoids were determined using LC-MSMS. IC50 of corresponding flavonoids are indicated. Bioavailability (F) was calculated by dividing the dose-adjusted area under curve (AUC) of that of orally-fed over intravenously administered animals.

In data set [6] the test system is promastigotes (L. amazonensis LV78, L major FV1, L. donovani HU3, L. donovani 39). Description: Anti-promastigote activity, strain not given. The format is cell-based. The settings on record: Leishmania amazonensis; strain not specified; read-out: IC50 against promastigotes. Put shortly: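 Promastigotes seeded at 1×10^5 per well and exposed to a concentration series of compound for 72 hours at 27° C. Viability read by MTS/PMS tetrazolium reduction (4 hours, OD 490 nm); IC50 derived.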

For data set [7], the system named is L. donovani (LdAG83) promastigotes. Nature of the data set: Anti-promastigote activity, wild type L. donovani LdAG83. The note with it: Leishmania donovani; printed in HU3 column; footnote *: wild type LdAG83 used instead of HU3. The data set is classed as cell-based.
Data set [8] is described as follows: Bioavailability study of flavonoid dimer 39, oral feeding vs i.v. The format is in vivo, Balb/c mice. The note with it: in 50% PEG, 30 minutes. The procedure:
Amine-linked flavonoid dimers are disclosed in prior studies to be sparingly soluble in aqueous medium. Their poor oral bioavailability is confirmed by in vivo study in mice. […] Plasma concentration of 39 was determined 30 minutes after oral feeding or i.v. administration. […] Such low bioavailability precluded 39 from being used as an oral antileishmanial agent in the future.

A short description of the next data set: Water solubility. The format is physicochemical. The source says:
In terms of physicochemical properties, all flavonoid monomers listed as active against either L. amazonensis (Table 3A) or L. donovani (Table 3B) are smaller than 39, and have fewer H-bond donors and acceptors. They also have a lower calculated ACDLogP (1.978 to 4.537) than 39 (5.104), except FM05 (5.011), FM17 (5.101) and FM19 (5.451). The lower ACDLogP values mean more water soluble; better partition between hydrophilic and hydrophobic phases and potentially easier to be absorbed orally. Indeed, these flavonoid monomers are highly water soluble (up to about 40 mg/mL of the hydrochloride salt) whereas 39 is not (up to about 4 mg/ml).

In general, IC50 refers to the point on the concentration scale where inhibition reaches its midpoint. In general, bioavailability refers to dose-corrected exposure relative to a reference, in per cent. In the case of `O=c1cc(-c2ccc(OCCOCCN(Cc3ccccn3)Cc3ccccn3)cc2)oc2ccccc12` [FM09, 2-(4-(2-(2-(bis(pyridin-2-ylmethyl)amino)ethoxy)ethoxy)phenyl)-4H-chromen-4-one], the IC50 in [1] was 1000 ± 300 nM; in [2], 800 ± 100 nM; in data set [3], 500 ± 200 nM; in data set [6], below 5000 nM. Besides, the “Mitochondrial potential (rhodamine 123 accumulation)” value in [4] (0-10 μM, 24 hr and 48 hr, dose-dependent) is recorded as “drop of mitochondrial potential”. For the same compound, the “% of survivors (MTS)” value in data set [4] (1.25 μM, 24 hr and 48 hr) is “about 100%”; in [4] (2.5 μM, 24 hr and 48 hr), “about 100%”; in [4] (5 μM, 24 hr), 68%; in [4] (5 μM, 48 hr), 88%. Also, the viability at 10 µM was determined as 29% in [4] (24 hr) and 23% in data set [4] (48 hr). Further, the “Clearance from plasma after oral feeding” value in data set [5] is recorded as “rapidly cleared”. Further, the bioavailability in [5] (Balb/c, mouse, plasma, 10 mg/kg iv, dose-adjusted AUC oral over iv, read-out: Bioavailability (F)) worked out at 14%.
A word on the solubility: it is the concentration that dissolves in the medium under given conditions. High values mean much dissolved substance, low ones little dissolved substance. In data set [7], `O=c1cc(-c2ccc(OCCOCCN(CCOCCOc3ccc(-c4cc(=O)c5ccccc5o4)cc3)Cc3ccncc3)cc2)oc2ccccc12` [compound 39] displayed an IC50 of 200 ± 30 nM. In data set [8], the “Plasma level after oral feeding relative to i.v. group” value was below 1%. Besides, the solubility in “Water solubility” is around 4000 µg/mL (≈ 5.52 mM).
